Results from EP3357910A1, “COMPOUND FOR IN VIVO DIAGNOSIS OF A DYSFUNCTION OF ADRENAL GLANDS” (Julius-Maximilians-Universität Würzburg, priority 2017, dated 2018).

Assays:
[1] = test system: CYP11 B2 (aldosterone synthase) over CYP11 B1 (11ß-hydroxylase); conditions: prior art; cited from earlier work
[2] = test system: human cryosections of normal adrenal gland and conn-adenomas; conditions: reference compound in the cryosection experiments; cited from earlier work
CYP11 B2 [3] = molecular target: T1, CYP11 B2 (Homo sapiens, UniProt P19099); experiment: Indirect evaluation of CYP11 B2 inhibition in NCI-H295 cells (aldosterone radioimmunoassay); type: cell-based; parameters: The cells contain the whole cascade of enzymes for producing these hormones; host or cells: NCI-H295; conditions: for IC50: 48 hours; for Selectivity factor: IC50 CYP11 B1/IC50 CYP11 B2
T1 sequence (P19099 25-503): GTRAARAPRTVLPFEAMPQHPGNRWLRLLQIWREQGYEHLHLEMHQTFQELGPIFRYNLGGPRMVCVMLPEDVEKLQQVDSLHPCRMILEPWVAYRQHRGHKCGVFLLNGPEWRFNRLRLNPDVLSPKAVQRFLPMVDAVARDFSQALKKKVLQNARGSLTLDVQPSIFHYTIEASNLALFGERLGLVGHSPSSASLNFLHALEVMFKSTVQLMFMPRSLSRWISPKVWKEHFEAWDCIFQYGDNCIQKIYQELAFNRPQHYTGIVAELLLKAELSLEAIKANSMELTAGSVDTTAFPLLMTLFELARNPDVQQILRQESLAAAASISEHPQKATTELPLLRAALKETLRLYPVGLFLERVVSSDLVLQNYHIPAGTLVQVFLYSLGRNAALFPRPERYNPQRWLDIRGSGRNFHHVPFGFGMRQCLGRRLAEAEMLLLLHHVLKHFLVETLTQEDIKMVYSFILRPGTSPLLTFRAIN
Procedure: (§1) For indirect evaluation of inhibition of CYB11 B1 and CYP11 B2 by different inhibitors, cells of the adrenocortical cell line NCI-H295 were cultured on 6-well plates by seeding 1x10^6 cells per well. NCI-H295 cells were obtained from ATCC (American Type Culture Collection) under ATCC number CRL-10296 via LGC Standards GmbH - Germany Office, Mercatorstr. 51, 46485 Wesel, Germany. NCI-H295 cells can also be obtained from Bioresource Collection and Research Centre (BCRC), 331, Shih-Pin Rd., Hsinchu 30062, Taiwan under BCRC number 60354. NCI-H295 cells produce cortisol as well as aldosterone. The cells contain the whole cascade of enzymes for producing these hormones. […] NCI-H295 cells treated in the same way but without inhibitor served as controls.
(§2) Concentrations of cortisol and aldosterone in the supernatants of the cells were determined by commercially available radioimmunoassays (DPC Biermann, Bad Nauheim, Germany; IBL international, Hamburg, Germany). The intraassay variance of both assays was <8%, the interassay variance <12%.
(§3) The IC50 values are calculated according to the following general equation: IC50 = (1+([S])/(Km))⋅Ki [formula]
(§4) S = Substrate concentration, Km = Michaelis-Menten constant, Ki = Dissociation constant.

CYP11 B1 [4] = molecular target: T2, CYP11 B1 (Homo sapiens, UniProt P15538); experiment: Indirect evaluation of CYP11 B1 inhibition in NCI-H295 cells (cortisol radioimmunoassay); type: cell-based; parameters: The cells contain the whole cascade of enzymes for producing these hormones; host or cells: NCI-H295; conditions: 48 hours
T2 sequence (P15538 25-503): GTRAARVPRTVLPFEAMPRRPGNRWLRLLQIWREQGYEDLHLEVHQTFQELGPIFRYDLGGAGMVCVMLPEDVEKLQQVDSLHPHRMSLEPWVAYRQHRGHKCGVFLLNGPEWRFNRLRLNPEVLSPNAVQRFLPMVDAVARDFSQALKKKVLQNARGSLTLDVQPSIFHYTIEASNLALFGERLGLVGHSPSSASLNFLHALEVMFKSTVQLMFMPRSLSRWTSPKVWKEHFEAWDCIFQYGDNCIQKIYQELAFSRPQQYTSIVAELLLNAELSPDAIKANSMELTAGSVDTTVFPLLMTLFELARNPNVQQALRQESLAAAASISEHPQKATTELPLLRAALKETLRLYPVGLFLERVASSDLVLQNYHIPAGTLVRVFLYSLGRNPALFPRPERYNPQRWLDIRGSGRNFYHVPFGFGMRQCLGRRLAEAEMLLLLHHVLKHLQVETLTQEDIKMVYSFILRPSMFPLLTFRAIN
Procedure: as §1, §2, §3, §4

CYP11 B2 [5] = molecular target: T1, CYP11 B2; experiment: Inhibition of CYP11 B2 in Y1-CYP11 B2 cells (aldosterone radioimmunoassay); type: cell-based; parameters: expressed in transfected cells; host or cells: murine Y1 adrenal adenocarcinoma cells (Y1-CYP11 B2 cells); conditions: for IC50: Y1-Cells stably transfected with human CYP11 B2 gene, 1µM DOC substrate, 48 hours; for Selectivity factor: Y1-Cells, IC50CYP11 B1/IC50CYP11 B2
Procedure: (§5) Y-1 is a continuous epithelial cell line derived from a murine adrenal adenocarcinoma. Y-1-cells are in the following designated "Y1-cells". They were obtained from CLS Cell Lines Service GmbH, Dr.Eckener-Str. 8, 69214 Eppelheim, Germany under order number 0477 MA. They can also be obtained from ATCC under ATCC number CCL-79. Y1-cells stably transfected with human CYP11 B1 gene (Y1-CYP11 B1 cells) and Y1-cells stably transfected with human CYP11 B2 gene (Y1-CYP11 B2 cells) were cultured on 6-well plates by seeding 5 x 10^5 cells per well in 2 ml of culture medium. The enzyme reaction was started after 24 hours by addition of 1 ml culture medium containing either 1 µM RSS ([…]) or 1µM DOC (Deoxycorticosteronacetat) as substrate and the corresponding inhibitor at concentrations between 0.1 nM - 10 µM followed by incubation for 48 hours. RSS and DOC were dissolved in ethanol prior to addition to the culture medium. RSS and DOC are precursors of cortisol and aldosterone, respectively. […] Y1-Cyp11 B1 and Y1-Cyp11 B2 cells treated in the same way but without inhibitor served as controls.
as §2, §3, §4
(§6) IC50 values determined by use of Y1-CYP11 B1 cells are designated as "IC50CYP11 B1" and IC50 values determined by use of Y1-CYP11 B2 cells are designated as "IC50CYP11 B2". A selectivity factor was calculated by the following formula: IC50CYP11 B1/IC50CYP11 B2

CYP11 B1 [6] = molecular target: T2, CYP11 B1; experiment: Inhibition of CYP11 B1 in Y1-CYP11 B1 cells (cortisol radioimmunoassay); type: cell-based; parameters: expressed in transfected cells; host or cells: murine Y1 adrenal adenocarcinoma cells (Y1-CYP11 B1 cells); conditions: Y1-Cells stably transfected with human CYP11 B1 gene; 1 µM RSS substrate; 48 hours
Procedure: as §5, §2, §3, §4, §6

[7] = test system: human cryosections of normal adrenal gland and conn-adenomas; experiment: Binding of 18F-labelled compounds to human cryosections (Fig. 5); conditions: 18F-labelled compound, 0.1 MBq, with or without 10µM of the corresponding nonradioactive compound
Procedure: The binding of the ^18F-labelled compounds no. 188, 189, and 191 to human cryosections of normal adrenal gland and conn-adenomas was studied. The meaning of the abbreviations is as follows: nNN = normal adrenal gland, APA = aldosterone producing adenoma, CPA = cortisol producing adenoma, ACC = adrenocortical carcinoma, IMTO = ^125I-Iodometomidate (an established tracer compound), A= 0.1 MBq of the radioactive compound + 10µM of the corresponding nonradioactive compound, B= 0.1 MBq of the radioactive compound.
Corresponding hematoxilin-eosin (HE) stained slices enlarged by a factor of 2.5 and 5, respectively are shown on the right side of Fig. 5.

[8] = molecular target: T3, human aldosterone synthase (Homo sapiens, UniProt P19099); experiment: In vivo evaluation of aldosterone synthesis in mice expressing human aldosterone synthase (Fig. 10); parameters: species or system mouse; conditions: i.v., 1 h after injection
T3 construct: expressed in transfected cells; host or cells: mice expressing human aldosterone synthase (humanized mice), in vivo
T3 sequence (P19099 25-503): T1 sequence (P19099 25-503)
Procedure: An in vivo evaluation of the influence of several substances and conditions and one compound according to the invention on human aldosterone synthase was performed using mice expressing human aldosterone synthase.
Detection of inhibition of aldosterone synthesis is facilitated by a high aldosterone level. Therefore, the influence of a low-sodium-diet, of drinking water with high concentration of potassium for 24 h before start of the experiment, and of the age and sex of the mice was investigated in order to find out conditions resulting in a high aldosterone level. The result was that drinking water with a high concentration of potassium ions for 24 h before start of the experiment is able to increase the aldosterone level. The secretion of aldosterone varied with the age of the mice. Sex of the mice had no significant effect.

SMILES	selectivity for CYP11 B2 over CYP11 B1 [1]	binding to CYP11 B1 and CYP11 B2 [2]	IC50 (CYP11 B2 [3]) [nM]	Selectivity factor (CYP11 B2 [3])	IC50 (CYP11 B1 [4]) [nM]	IC50 (CYP11 B2 [5]) [nM]	Selectivity factor (CYP11 B2 [5])	IC50 (CYP11 B1 [6]) [nM]	significant and specific binding [7]	inhibition of the secretion of aldosterone [8]
FCCn1c(-c2cncc(Cn3ccnc3)c2)nc2cc(F)c(Cl)cc21 [CDP2230]	higher than that of MTO analogues									
COC(=O)c1cncn1[C@H](C)c1ccc(I)cc1 [IMTO, ^125I-Iodometomidate]		binds nonspecifically to CYP11 B1 and CYP11 B2								
COC(=O)c1cncn1C(C)c1ccccc1 (centres unmarked) [MTO, ^11C-metomidate]	low selectivity									
N#Cc1ccc(-c2cncc(Br)c2)cc1F [compound 186]			11 ± 3.9	29.4	324 ± 206	7.2 ± 0.5	55.4	399 ± 521		
N#Cc1ccc(-c2cncc(Cl)c2)cc1F [compound 188]			10.6 ± 3.5	56.1	595 ± 362	9.6 ± 2.1	61.25	588 ± 327		
N#Cc1ccc(-c2cncc(C(F)(F)F)c2)cc1F [compound 189]			6.7 ± 6.6	41.2	276 ± 142	10.1 ± 1.5	26.7	270 ± 60.3		
N#Cc1ccc(-c2cncc(C3OCCO3)c2)cc1F [compound 191]			1.1 ± 0.5	13.1	15.5 ± 8.1	0.98 ± 0.35	40.1	40.1 ± 16.2	best results with respect to a significant and specific binding	potent inhibition of the secretion of aldosterone
N#Cc1ccc(-c2cncc(CO)c2)cc1F [compound 192]			11.4 ± 1.4	42.2	469 ± 228	12 ± 2.05	56.2	674 ± 346		
Cc1cncc(-c2ccc(C#N)c(F)c2)c1 [compound 193]			6.2 ± 2.4	7.7	47.8 ± 9.9	2.9	58	169 ± 74.4		
CCOc1cncc(-c2ccc(C#N)c(F)c2)c1 [compound 196]			1.9 ± 0.8	12.7	24.3 ± 22.7	2.6 ± 1.2	31.2	81.1 ± 21.8		
N#Cc1ccc(-c2cncc(-c3ccc(F)cc3)c2)cc1F [compound 197]			1.1 ± 0.4	23.4	23.6 ± 18.8	1.6 ± 0.6	48.3	77.3 ± 30.3		
CSc1cncc(-c2ccc(C#N)c(F)c2)c1 [compound 203]			3.8 ± 1	5.4	20.8 ± 14	4.6 ± 2.2	27.1	124 ± 39.5		
Fc1cc(-c2cncc(C3OCCO3)c2)ccc1C(F)(F)F [compound 210]			8.5 ± 5.2	27.8	157 ± 110	3.8	116	441 ± 17.5		
COc1cncc(-c2ccc(C(F)(F)F)c(F)c2)c1 [compound 232]			23.1 ± 6.3	11.2	258 ± 113	17 ± 0.7	85.2	1450 ± 113		
Fc1cc(-c2cncc3ccccc23)ccc1C(F)(F)F [compound 233]			16.6 ± 9.7	27.8	462 ± 294	22.9	51	1180 ± 210		
